Laboratory results: patent US6737383B1, “Herbicidal oxadiazolidines” (priority 1999, dated 2004)

Tests used:
bedstraw = experiment: Test B pre/postemergence bedstraw; type: in vivo, Galium aparine
How it was run: (§1)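 Test chemicals in a non-phytotoxic solvent mixture with surfactant were sprayed preemergence onto planted seeds and postemergence onto plants 2 to 18 cm tall (1- to 4-leaf stage). After twelve to sixteen days in a greenhouse, injury was visually rated against untreated controls from 0 (no effect) to 10 (complete control).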

soybean = experiment: Test B pre/postemergence soybean; type: in vivo, Glycine max
How it was run: as §1

giant foxtail = experiment: Test B pre/postemergence giant foxtail; type: in vivo, Setaria faberii
How it was run: as §1

rape = experiment: Test B pre/postemergence rape; type: in vivo, Brassica napus
How it was run: as §1

cocklebur = experiment: Test B pre/postemergence cocklebur; type: in vivo, Xanthium strumarium
How it was run: as §1

purple nutsedge = experiment: Test B pre/postemergence purple nutsedge; type: in vivo, Cyperus rotundus
How it was run: as §1

blackgrass = experiment: Test B pre/postemergence blackgrass; type: in vivo, Alopecurus myosuroides
How it was run: as §1

wheat = experiment: Test B pre/postemergence wheat; type: in vivo, Triticum aestivum
How it was run: as §1

wild oat = experiment: Test B pre/postemergence wild oat; type: in vivo, Avena fatua
How it was run: as §1

morningglory = experiment: Test B pre/postemergence morningglory; type: in vivo, Ipomoea hederacea
How it was run: as §1

crabgrass = experiment: Test B pre/postemergence crabgrass; type: in vivo, Digitaria sanguinalis
How it was run: as §1

velvetleaf = experiment: Test B pre/postemergence velvetleaf; type: in vivo, Abutilon theophrasti
How it was run: as §1

corn = experiment: Test B pre/postemergence corn; type: in vivo, Zea mays
How it was run: as §1

surinam grass = experiment: Test B pre/postemergence surinam grass; type: in vivo, Brachiaria decumbens
How it was run: as §1

sugar beet = experiment: Test B pre/postemergence sugar beet; type: in vivo, Beta vulgaris
How it was run: as §1

pigweed = experiment: Test B pre/postemergence pigweed; type: in vivo, Amaranthus retroflexus
How it was run: as §1

[1] = Postemergence, Rate 62 g/ha, scale of 0 to 10, 0 is no effect, 10 is complete control
[2] = Postemergence, Rate 125 g/ha, scale 0 to 10, 0 is no effect, 10 is complete control
[3] = Postemergence, Rate 500 g/ha, scale of 0 to 10 where 0 is no effect and 10 is complete control
[4] = Preemergence, Rate 62 g/ha, scale 0 to 10 (0 no effect, 10 complete control)
[5] = Preemergence, Rate 125 g/ha, scale 0 to 10, 0 is no effect, 10 is complete control
[6] = Preemergence, Rate 500 g/ha, scale of 0 to 10 where 0 is no effect and 10 is complete control
[7] = Rate 250 g/ha, Postemergence, scale of 0 to 10 where 0 is no effect and 10 is complete control

CC(=O)OCCCCn1c(=O)on(C(=O)N(c2ccccc2)C(C)C)c1=O [Compound 565]
3: Plant response rating, Soybean (soybean; [3]) | Plant response rating, Soybean (soybean; [7]) | Plant response rating, Giant foxtail (giant foxtail; [3]) | Morningglory plant response rating (morningglory; [1]) | Plant response rating, Crabgrass (crabgrass; [3]) | Velvetleaf plant response rating (velvetleaf; [1])
2: Soybean plant response rating (soybean; [1]) | Giant foxtail plant response rating (giant foxtail; [6]) | Plant response rating, Cocklebur (cocklebur; [3]) | Plant response rating, Cocklebur (cocklebur; [7]) | Crabgrass plant response rating (crabgrass; [6])
9: Plant response rating, Morningglory (morningglory; [3]) | Redroot pigweed plant response rating (pigweed; [6])
4: Plant response rating, Velvetleaf (velvetleaf; [3]) | Plant response rating, Velvetleaf (velvetleaf; [7])
6: Plant response rating, Redroot pigweed (pigweed; [3]) | Plant response rating, Redroot pigweed (pigweed; [7])
7: Plant response rating, Morningglory (morningglory; [7])
5: Morningglory plant response rating (morningglory; [2])
0: Bedstraw plant response rating (bedstraw; [1]) | Bedstraw plant response rating (bedstraw; [2]) | Plant response rating, Bedstraw (bedstraw; [3]) | Bedstraw plant response rating (bedstraw; [4]) | Bedstraw plant response rating (bedstraw; [5]) | Bedstraw plant response rating (0 to 10 scale) (bedstraw; Preemergence, Rate 250 g/ha) | Bedstraw plant response rating (bedstraw; [6]) | Soybean plant response rating (soybean; [4]) | Soybean plant response rating (soybean; [5]) | Soybean plant response rating (0 to 10 scale) (soybean; Preemergence, Rate 250 g/ha) | Soybean plant response rating (soybean; [6]) | Giant foxtail plant response rating (giant foxtail; [1]) | Giant foxtail plant response rating (giant foxtail; [2]) | Giant foxtail plant response rating (giant foxtail; [4]) | Giant foxtail plant response rating (giant foxtail; [5]) | Giant foxtail plant response rating (0 to 10 scale) (giant foxtail; Preemergence, Rate 250 g/ha) | Plant response rating, Giant foxtail (giant foxtail; [7]) | Rape plant response rating (rape; [1]) | Rape plant response rating (rape; [2]) | Plant response rating, Rape (rape; [3]) | Rape plant response rating (rape; [4]) | Rape plant response rating (rape; [5]) | Rape plant response rating (0 to 10 scale) (rape; Preemergence, Rate 250 g/ha) | Rape plant response rating (rape; [6]) | Plant response rating, Rape (rape; [7]) | Cocklebur plant response rating (cocklebur; [1]) | Cocklebur plant response rating (cocklebur; [2]) | Cocklebur plant response rating (cocklebur; [4]) | Cocklebur plant response rating (cocklebur; [5]) | Cocklebur plant response rating (0 to 10 scale) (cocklebur; Preemergence, Rate 250 g/ha) | Cocklebur plant response rating (cocklebur; [6]) | Nutsedge plant response rating (purple nutsedge; [2]) | Plant response rating, Nutsedge (purple nutsedge; [3]) | Nutsedge plant response rating (purple nutsedge; [4]) | Nutsedge plant response rating (purple nutsedge; [5]) | Nutsedge plant response rating (0 to 10 scale) (purple nutsedge; Preemergence, Rate 250 g/ha) | Nutsedge plant response rating (purple nutsedge; [6]) | Plant response rating, Nutsedge (purple nutsedge; [7]) | Blackgrass plant response rating (blackgrass; [1]) | Blackgrass plant response rating (blackgrass; [2]) | Plant response rating, Blackgrass (blackgrass; [3]) | Blackgrass plant response rating (blackgrass; [4]) | Blackgrass plant response rating (blackgrass; [5]) | Blackgrass plant response rating (0 to 10 scale) (blackgrass; Preemergence, Rate 250 g/ha) | Blackgrass plant response rating (blackgrass; [6]) | Plant response rating, Blackgrass (blackgrass; [7]) | Wheat plant response rating (wheat; [1]) | Plant response rating, Wheat (wheat; [3]) | Wheat plant response rating (wheat; [4]) | Wheat plant response rating (wheat; [5]) | Wheat plant response rating (0 to 10 scale) (wheat; Preemergence, Rate 250 g/ha) | Wheat plant response rating (wheat; [6]) | Plant response rating, Wheat (wheat; [7]) | Wild oats plant response rating (wild oat; [1]) | Plant response rating, Wild oats (wild oat; [3]) | Wild oats plant response rating (wild oat; [4]) | Wild oats plant response rating (wild oat; [5]) | Wild oats plant response rating (0 to 10 scale) (wild oat; Preemergence, Rate 250 g/ha) | Wild oats plant response rating (wild oat; [6]) | Plant response rating, Wild oats (wild oat; [7]) | Morningglory plant response rating (morningglory; [4]) | Morningglory plant response rating (morningglory; [5]) | Morningglory plant response rating (0 to 10 scale) (morningglory; Preemergence, Rate 250 g/ha) | Morningglory plant response rating (morningglory; [6]) | Crabgrass plant response rating (crabgrass; [1]) | Crabgrass plant response rating (crabgrass; [2]) | Crabgrass plant response rating (crabgrass; [4]) | Crabgrass plant response rating (crabgrass; [5]) | Crabgrass plant response rating (0 to 10 scale) (crabgrass; Preemergence, Rate 250 g/ha) | Plant response rating, Crabgrass (crabgrass; [7]) | Velvetleaf plant response rating (velvetleaf; [4]) | Velvetleaf plant response rating (velvetleaf; [5]) | Velvetleaf plant response rating (0 to 10 scale) (velvetleaf; Preemergence, Rate 250 g/ha) | Velvetleaf plant response rating (velvetleaf; [6]) | Corn plant response rating (corn; [1]) | Corn plant response rating (corn; [2]) | Plant response rating, Corn (corn; [3]) | Corn plant response rating (corn; [4]) | Corn plant response rating (corn; [5]) | Corn plant response rating (0 to 10 scale) (corn; Preemergence, Rate 250 g/ha) | Corn plant response rating (corn; [6]) | Plant response rating, Corn (corn; [7]) | B. signalgrass plant response rating (surinam grass; [1]) | B. signalgrass plant response rating (surinam grass; [2]) | Plant response rating, B. signalgrass (surinam grass; [3]) | B. signalgrass plant response rating (surinam grass; [4]) | B. signalgrass plant response rating (surinam grass; [5]) | B. signalgrass plant response rating (0 to 10 scale, 0 is no effect, 10 is complete control) (surinam grass; Preemergence, Rate 250 g/ha) | B. signalgrass plant response rating (surinam grass; [6]) | Plant response rating, B. signalgrass (surinam grass; [7]) | Sugarbeets plant response rating (sugar beet; [1]) | Plant response rating, Sugarbeets (sugar beet; [3]) | Sugarbeets plant response rating (sugar beet; [4]) | Sugarbeets plant response rating (sugar beet; [5]) | Sugarbeets plant response rating (0 to 10 scale) (sugar beet; Preemergence, Rate 250 g/ha) | Sugarbeets plant response rating (sugar beet; [6]) | Plant response rating, Sugarbeets (sugar beet; [7]) | Redroot pigweed plant response rating (pigweed; [1]) | Redroot pigweed plant response rating (pigweed; [4]) | Redroot pigweed plant response rating (pigweed; [5]) | Redroot pigweed plant response rating (0 to 10 scale) (pigweed; Preemergence, Rate 250 g/ha)
